In paper PMC6150412, “Design, Synthesis, and Evaluation of Novel Phenolic Acid/Dipeptide/Borneol Hybrids as Potent Angiotensin Converting Enzyme (ACE) Inhibitors with Anti-hypertension Activity” (Molecules : A Journal of Synthetic Chemistry and Natural …, 2017):

Columns and labels:
[1] = biological target: T1, angiotensin converting enzyme (ACE) (Oryctolagus cuniculus, UniProt P12822); test: In vitro ACE inhibition assay (hippuric acid release from HHL); format: biochemical; settings: HHL substrate, pH 8.3, 37 °C, 15 min; five concentrations 0.01–10 µM; read-out: ACE-inhibitory activity IC50
T1 construct: purchased Sigma-aldrich, St. Louis, MO, USA A-6778
T1 sequence (P12822 34-1310): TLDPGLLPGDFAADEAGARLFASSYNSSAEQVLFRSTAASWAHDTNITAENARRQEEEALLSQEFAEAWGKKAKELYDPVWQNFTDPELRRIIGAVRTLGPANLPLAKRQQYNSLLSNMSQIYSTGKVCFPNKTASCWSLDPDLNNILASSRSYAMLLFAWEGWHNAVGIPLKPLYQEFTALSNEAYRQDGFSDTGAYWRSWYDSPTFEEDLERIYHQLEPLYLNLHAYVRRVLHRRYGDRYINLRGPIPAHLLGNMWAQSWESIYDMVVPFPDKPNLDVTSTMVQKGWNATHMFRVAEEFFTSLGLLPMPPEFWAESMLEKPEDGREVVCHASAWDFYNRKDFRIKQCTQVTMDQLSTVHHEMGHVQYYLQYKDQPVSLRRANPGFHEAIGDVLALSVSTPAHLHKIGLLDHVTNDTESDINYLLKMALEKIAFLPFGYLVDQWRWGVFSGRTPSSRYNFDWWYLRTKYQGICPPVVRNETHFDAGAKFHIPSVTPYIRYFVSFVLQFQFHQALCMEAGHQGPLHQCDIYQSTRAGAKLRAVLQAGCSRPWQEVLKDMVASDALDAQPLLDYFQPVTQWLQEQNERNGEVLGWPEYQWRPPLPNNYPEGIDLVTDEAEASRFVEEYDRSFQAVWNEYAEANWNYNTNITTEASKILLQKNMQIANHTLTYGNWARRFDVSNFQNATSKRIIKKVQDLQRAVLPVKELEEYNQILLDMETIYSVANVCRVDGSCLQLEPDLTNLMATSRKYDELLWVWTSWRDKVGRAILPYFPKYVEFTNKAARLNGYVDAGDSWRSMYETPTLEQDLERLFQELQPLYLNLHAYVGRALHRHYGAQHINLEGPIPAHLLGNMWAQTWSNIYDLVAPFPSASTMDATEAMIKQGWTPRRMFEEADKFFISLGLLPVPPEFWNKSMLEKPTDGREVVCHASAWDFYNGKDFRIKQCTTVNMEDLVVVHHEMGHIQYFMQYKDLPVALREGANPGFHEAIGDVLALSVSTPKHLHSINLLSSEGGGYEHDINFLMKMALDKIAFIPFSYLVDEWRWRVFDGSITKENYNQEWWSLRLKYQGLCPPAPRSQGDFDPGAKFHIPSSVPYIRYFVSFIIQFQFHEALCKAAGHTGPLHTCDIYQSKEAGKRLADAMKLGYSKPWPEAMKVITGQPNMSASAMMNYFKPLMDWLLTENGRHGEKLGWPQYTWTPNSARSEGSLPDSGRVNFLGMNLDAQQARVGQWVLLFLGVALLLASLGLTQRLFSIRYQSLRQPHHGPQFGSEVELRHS
Description: The in vitro ACE-inhibitory activity of the newly synthesized compounds was evaluated using ACE inhibition assay (Sigma-aldrich, St. Louis, MO, USA, No. A-6778). The experiments were carried out for all the designed compounds (7a–7h), for ACE-inhibitory activity at five different concentrations (0.01–10 µM). Lisinopril, a well-known ACE inhibitor drug, was used as standard for comparison with the inhibitory activity of synthesized compounds. The ACE-inhibitory activity can be calculated by the following equation: ACE-inhibitory activity (inhibition rate %) = [(Ablank1 − Asample)/(Ablank1 − Ablank2)] × 100, where blank 1: Positive control (without ACE inhibition) and blank 2: Reagent blank. Then we measured and calculated the IC50 values of the designed compounds (7a–7h).
The preliminary biological investigations were conducted in vitro using the ACE-inhibition assay. […] That is, the activity of these compounds gradually declined when the size of the amino acid side chain increased. Besides, the influence of phenolic acids on ACE-inhibitory activity was more obvious following the order: protocatechuic acid > ferulic acid > gallic acid > 3,4-dihydroxybenzene acid. That is, substituents in positions 3 and 4 in the benzene ring are beneficial to the increase of ACE-inhibitory activity. At the same time, the shorter the amino side chain in phenolic acids, the better the ACE-inhibitory activity.

[2] = system: spontaneously hypertensive rats (SHRs); test: Acute antihypertensive test, single intragastric dose, tail-cuff BP; format: in vivo, rat; settings: for Duration of antihypertensive activity / Reduction in blood pressure (systolic arterial pressure) compared with lisinopril: single oral dose; for Reduction in blood pressure (systolic arterial pressure) compared with lisinopril: same molar dose as lisinopril
Description: (§1) All the experiments were approved by the Institutional Animal Ethics Committee of Northwest University. Experiments were carried out on spontaneously hypertension rats (SHRs) that were 9–10 weeks old and weighed 200–220 g. SHRs treated with normal saline were used as controls. Lisinopril was used as a standard drug. Blood pressure (BP) was recorded automatically every day by the indirect tail-cuff method using an electrosphygmomanometer (BP-2010A Storage Pressure Meter). […] The BP were measured before and 0.5, 1, 2, 3, 4, 5 and 6 h after a single dose of intragastrical administration of active compounds.
(§2) Figure 4 (A,B), the acute antihypertensive activity of compounds 7a and 7g in spontaneously hypertension rats (SHRs) for single dose administration (dosing time: 0 min); (C) the therapeutic antihypertensive activity of compounds 7a and 7g in SHRs for 7 days treatment (dosing time: 0 day; blood pressure (BP) measured time: 9:30–11:30 am). Data are presented as mean ± SEM, n = 6. The BP was determined with a BP-2010A Storage Pressure Meter. This system measures BP by recording the cuff pressure at which the interrupted blood flow returns to the tail. Before drug administration, training consisted of five sessions over 3 days. The SHRs were placed into a thermostatically controlled Lucite box of the Visitech system BP2010A, and heated on a heated pad maintained at 37 °C for 2 min before BP measurement started. The tail root of SHR was surrounded by an inflatable tubular sleeve, and a pulse electron detector was placed in the root of the tails. Then BP was measured after the computer provided a stable signal. The BP for the session was accepted as the average of five BP readings that were within 10 mm Hg. The average BP values were calculated by employing the ANOVA method.

[3] = system: spontaneously hypertensive rats (SHRs); test: Therapeutic antihypertensive test, 7 consecutive days oral treatment, tail-cuff BP; format: in vivo, rat; settings: for Maximum antihypertensive effect compared with lisinopril (20 mg/kg/day): 100 mg/kg daily, oral, 7 days; for Blood pressure during repeated treatment: 100 mg/kg, Po. 7 days
Description: as §1, §2

Row | Compound | IC50 [1] [µM] | Onset of antihypertensive activity after oral treatment [2] [h] | Duration of antihypertensive activity [2] | Reduction in blood pressure (systolic arterial pressure) compared with lisinopril [2] | Maximum antihypertensive effect compared with lisinopril (20 mg/kg/day) [3] | Blood pressure during repeated treatment [3]
1 | CC(C)[C@H](NC(=O)c1ccc(O)c(O)c1)C(=O)N1CCC[C@H]1C(=O)OC1CC2CCC1(C)C2(C)C (stereo partly shown) [Compound 7a] | 6.76 ± 0.96 | 0.5 | four | slightly better than that of lisinopril | approximately equivalent to that of lisinopril | decreased remarkably on the second day after oral administration
2 | CC(C)[C@H](NC(=O)Cc1ccc(O)c(O)c1)C(=O)N1CCC[C@H]1C(=O)OC1CC2CCC1(C)C2(C)C (stereo partly shown) [Compound 7b] | 13.9 ± 1.61 | – | – | – | – | –
3 | COc1cc(/C=C/C(=O)N[C@H](C(=O)N2CCC[C@H]2C(=O)OC2CC3CCC2(C)C3(C)C)C(C)C)ccc1O (stereo partly shown) [Compound 7c] | 11.9 ± 1.82 | – | – | – | – | –
4 | CC(C)[C@H](NC(=O)c1cc(O)c(O)c(O)c1)C(=O)N1CCC[C@H]1C(=O)OC1CC2CCC1(C)C2(C)C (stereo partly shown) [Compound 7d] | 13.5 ± 2.02 | – | – | – | – | –
5 | CC(C)C[C@H](NC(=O)c1ccc(O)c(O)c1)C(=O)N1CCC[C@H]1C(=O)OC1CC2CCC1(C)C2(C)C (stereo partly shown) [Compound 7e] | 10.6 ± 1.72 | – | – | – | – | –
6 | CC(C)C[C@H](NC(=O)Cc1ccc(O)c(O)c1)C(=O)N1CCC[C@H]1C(=O)OC1CC2CCC1(C)C2(C)C (stereo partly shown) [Compound 7f] | 14 ± 1.84 | – | – | – | – | –
7 | COc1cc(/C=C/C(=O)N[C@@H](CC(C)C)C(=O)N2CCC[C@H]2C(=O)OC2CC3CCC2(C)C3(C)C)ccc1O (stereo partly shown) [Compound 7g] | 6.88 ± 0.85 | 0.5 | four | slightly better than that of lisinopril | approximately equivalent to that of lisinopril | decreased remarkably on the second day after oral administration
8 | CC(C)C[C@H](NC(=O)c1cc(O)c(O)c(O)c1)C(=O)N1CCC[C@H]1C(=O)OC1CC2CCC1(C)C2(C)C (stereo partly shown) [Compound 7h] | 13.2 ± 2.47 | – | – | – | – | –
9 | NCCCC[C@H](N[C@@H](CCc1ccccc1)C(=O)O)C(=O)N1CCC[C@H]1C(=O)O [Lisinopril, reference compound] | < 0.01 | – | – | – | – | –
